Legend:
[1] = target: T1, C-terminal catalytic domain of MALT1 (amino acid residues 329-824) (Homo sapiens, UniProt Q9UDY8); experiment: MALT1 protease inhibitory activity (enzyme activity inhibition assay, fluorogenic substrate); format: biochemical; conditions: substrate Ac-Leu-Arg-Ser-Arg-AMC 50 µM; 30°C for 2 hours; fluorescence
T1 construct: C-terminal catalytic domain of MALT1 (amino acid residues 329-824)
T1 sequence (Q9UDY8 329-824): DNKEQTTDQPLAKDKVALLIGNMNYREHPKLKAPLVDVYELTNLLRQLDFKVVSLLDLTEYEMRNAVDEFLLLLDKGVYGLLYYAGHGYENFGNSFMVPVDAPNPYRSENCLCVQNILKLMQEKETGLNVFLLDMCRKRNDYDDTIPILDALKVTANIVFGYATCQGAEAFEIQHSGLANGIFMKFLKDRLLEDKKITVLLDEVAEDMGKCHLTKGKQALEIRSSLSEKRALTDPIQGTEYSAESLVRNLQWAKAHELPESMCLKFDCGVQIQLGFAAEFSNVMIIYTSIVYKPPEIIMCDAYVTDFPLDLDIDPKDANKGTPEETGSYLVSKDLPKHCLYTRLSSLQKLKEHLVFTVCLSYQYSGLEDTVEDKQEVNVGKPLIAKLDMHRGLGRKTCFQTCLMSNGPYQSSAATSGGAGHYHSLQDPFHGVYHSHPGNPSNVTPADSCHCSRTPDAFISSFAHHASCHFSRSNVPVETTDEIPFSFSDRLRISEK
Procedure: To evaluate the enzyme inhibitory activity of a test substance against MALT1, an enzyme activity inhibition assay was conducted using the C-terminal catalytic domain of MALT1 (amino acid residues 329-824).
A test substance was prepared at a concentration of 10 mM in dimethyl sulfoxide (DMSO) and further diluted with DMSO to obtain final concentrations of 1000, 100, 10, 1, and 0.1 µM. The solutions were further diluted 25-fold with an assay buffer to prepare final test substance solutions. The composition of the assay buffer was 200 mM Tris/HCl HEPES (pH 7.5), 0.8 M Na citrate, 100 µM DTT, and 0.05% CHAPS.
The test substance solution was added to a 384-well black plate (#6007270, PerkinElmer) in an amount of 5 µL per well (n = 2; final concentrations of 10000, 1000, 100, 10, 1, and 0.1 nM), followed by the addition of 10 µL of MALT1 enzyme and finally 5 µL of a substrate solution (Ac-Leu-Arg-Ser-Arg-AMC, Peptide Institute, Inc.; final concentration in the reaction mixture: 50 µM), and after stirring, the mixture was allowed to react at 30°C for 2 hours. Fluorescence (excitation: 380 nm, emission: 460 nm) was detected using a microplate reader (EnVision, PerkinElmer).
Using the measurement data, non-linear regression analysis based on a 2-parameter logistic model was performed with Spotfire (PerkinElmer) to calculate IC50.

[2] = system: HEK293/API2-MALT1/NF-κB reporter cells; experiment: Inhibition of reporter activity in HEK293/API2-MALT1/NF-κB reporter cells; format: cell-based; conditions: Homo sapiens, 24 hours with test substance, One-glo luminescence
Procedure: The API2-MALT1 fusion protein, expressed in MALT lymphoma, is known to constitutively activate the NF-κB pathway. To evaluate the inhibitory effect of the test substance on the NF-κB pathway in cells, a reporter activity inhibition test was conducted using HEK293/API2-MALT1/NF-κB reporter cells.
(§1) The test substance was prepared at a concentration of 10 mM in dimethyl sulfoxide (DMSO) and further diluted with DMSO to each of concentrations of 1000, 300, 100, and 10 µM. The solutions were further diluted 100-fold with DMEM medium containing 10% FBS to prepare test substance solutions.
HEK293/API2-MALT1/NF-κB reporter cells and 293T/CMV reporter cells (used as a negative control) were cultured in DMEM medium containing 10% FBS. Into a 384-well plate (#781080, Greiner), 6,000 cells were seeded in 30 µL per well, and after culturing for 24 hours, 3.3 µL of the adjusted test substance solution was added thereto (final concentrations: 10,000, 1,000, 100, and 10 nM). After culturing for 24 hours at 37°C in a 5% CO2 incubator, 33 µL of One-glo (Promega) was added to each well. After a 5-minute incubation at room temperature, luminescence was detected using a microplate reader (EnVision, PerkinElmer).
Using the measurement data, non-linear regression analysis was performed with the SAS system (SAS Institute Inc.) to estimate IC50.

[3] = system: OCI-Ly3 cell lines; experiment: Proliferation inhibition test, ABC-DLBCL cell line OCI-Ly3; format: cell-based; conditions: Homo sapiens; OCI-Ly3 (ABC-DLBCL, NF-κB pathway-dependent); 96 hours; Cell Counting Kit-8; read-out: Proliferation inhibitory activity against OCI-Ly3 IC50
Procedure: (§2) In ABC-DLBCL cell lines, the NF-κB pathway is constitutively activated due to mutations in the B-cell receptor pathway. To evaluate the proliferation inhibitory activity associated with the MALT1 inhibitory activity of the test substance, a proliferation inhibition test was conducted using ABC-DLBCL cell lines.
as §1, with “3,000, 1,000,” for “1000,”, “100, 30,” for “100,”, “IMDM” for “DMEM”
(§3) OCI-Ly3 cell lines (ABC-DLBCL, NF-κB pathway-dependent) were cultured in IMDM containing 10% FBS, and SU-DHL-4 cell lines (GCB-DLBCL, NF-κB pathway-independent, used as a negative control) were cultured in RPMI-1640 containing 10% FBS. Into a 96-well plate, 2,000 cells of the OCI-Ly3 cell line and 4,000 cells of the SU-DHL-4 cell line were seeded in 100 µL per well, and 11 µL of the adjusted test substance solution was added thereto (final concentrations: 10,000, 3,000, 1,000, 300, 100, 30, and 10 nM). After 96 hours of incubation at 37°C in a 5% CO2 incubator, 10 µL of Cell Counting Kit-8 (Dojindo Laboratories) was added to each well. After 4 hours of incubation at 37°C, absorbance at 450 nm was detected using a microplate reader (EnVision, PerkinElmer).
(§4) Using the measurement data, non-linear regression analysis based on a 2-parameter logistic model was performed with Spotfire (PerkinElmer) to estimate IC50 values.

[4] = system: SU-DHL-4 cell lines; experiment: Proliferation inhibition test, GCB-DLBCL cell line SU-DHL-4 (negative control line); format: cell-based; conditions: Homo sapiens; SU-DHL-4 (GCB-DLBCL, NF-κB pathway-independent, negative control); 96 hours; Cell Counting Kit-8; read-out: Proliferation inhibitory activity against SU-DHL-4 IC50
Procedure: as §2
as §1, with “3,000, 1,000,” for “1000,”, “100, 30,” for “100,”, “IMDM” for “DMEM”
as §3, §4

Compound	IC50 [1] [nM]	IC50 [3] [nM]	IC50 [4] [nM]	IC50 [2] [nM]
C[C@@H]1CC(C(=O)c2cn(CCO)c3nc(-n4nccn4)c(Cl)cc23)C[C@@H](C)N1c1ncc(F)cc1I (stereo partly drawn) [Example 4, [5-chloro-1-(2-hydroxyethyl)-6-(2H-1,2,3-triazol-2-yl)-1H-pyrrolo[2,3-b]pyridin-3-yl][(2R,6R)-1-(5-fluoro-3-iodopyridin-2-yl)-2,6-dimethylpiperidin-4-yl]methanone]	–	450	7200	230
CCn1cc(C(=O)c2cnn(-c3cncc4c(F)cccc34)c2C(F)(F)F)c2cc(Cl)c(-c3ncccn3)nc21 [Example 13, [5-chloro-1-ethyl-6-(pyrimidin-2-yl)-1H-pyrrolo[2,3-b]pyridin-3-yl][1-(8-fluoroisoquinolin-4-yl)-5-(trifluoromethyl)-1H-pyrazol-4-yl]methanone]	15	110	2000	62
C[C@@H]1CC(C(=O)c2cn(CCCO)c3nc(-n4nccn4)c(Cl)cc23)C[C@@H](C)N1c1ncc(F)cc1I (stereo partly drawn) [Example 15, [5-chloro-1-(3-hydroxypropyl)-6-(2H-1,2,3-triazol-2-yl)-1H-pyrrolo[2,3-b]pyridin-3-yl][(2R,6R)-1-(5-fluoro-3-iodopyridin-2-yl)-2,6-dimethylpiperidin-4-yl]methanone]	–	720	8400	170
C[C@@H]1CC(C(=O)c2cn(C3CCS(=O)(=O)CC3)c3nc(-n4nccn4)c(Cl)cc23)C[C@@H](C)N1c1ncc(F)cc1I (stereo partly drawn) [Example 19, [5-chloro-1-(1,1-dioxotetrahydro-2H-thiopyran-4-yl)-6-(2H-1,2,3-triazol-2-yl)-1H-pyrrolo[2,3-b]pyridin-3-yl][(2R,6R)-1-(5-fluoro-3-iodopyridin-2-yl)-2,6-dimethylpiperidin-4-yl]methanone]	92	240	2500	130

Continued, in another order:

IC50 [1] [nM]	IC50 [3] [nM]	IC50 [4] [nM]	Compound	IC50 [2] [nM]
10	790	> 10000	C[C@@H]1C[C@H](C(=O)c2cn(C)c3nc(-n4nccn4)c(Cl)cc23)CCN1c1ncncc1Br (racemic) [Example 33, [(2RS,4RS)-1-(5-bromopyrimidin-4-yl)-2-methylpiperidin-4-yl][5-chloro-1-methyl-6-(2H-1,2,3-triazol-2-yl)-1H-pyrrolo[2,3-b]pyridin-3-yl]methanone]	640
13	520	> 10000	C[C@@H]1C[C@H](C(=O)c2cn(C)c3nc(-n4nccn4)c(Cl)cc23)CCN1c1ccc(F)cc1N (racemic) [Example 34, [(2RS,4RS)-1-(2-amino-4-fluorophenyl)-2-methylpiperidin-4-yl][5-chloro-1-methyl-6-(2H-1,2,3-triazol-2-yl)-1H-pyrrolo[2,3-b]pyridin-3-yl]methanone]	200
37	630	9500	C[C@@H]1C[C@H](C(=O)c2c[nH]c3nc(C(=O)N4CCNCC4)c(Cl)cc23)CCN1c1ncc(F)cc1Cl (racemic) [Example 35, {5-chloro-3-[(2RS,4RS)-1-(3-chloro-5-fluoropyridin-2-yl)-2-methylpiperidine-4-carbonyl]-1H-pyrrolo[2,3-b]pyridin-6-yl}(piperazin-1-yl)methanone]	390
20	410	2500	C[C@@H]1C[C@H](C(=O)c2cn(C)c3nc(S(=O)(=O)N4CCNCC4)c(Cl)cc23)CCN1c1ncc(F)cc1Cl (racemic) [Example 36, [(2RS,4RS)-1-(3-chloro-5-fluoropyridin-2-yl)-2-methylpiperidin-4-yl][5-chloro-1-methyl-6-(piperazin-1-ylsulfonyl)-1H-pyrrolo[2,3-b]pyridin-3-yl]methanone]	280
